Assay results taken from patent US9994548B2, “Phenyl-substituted nicotinic ligands, and methods of use thereof” (Georgetown University, priority 2011, dated 2018).
Entries after “also recorded” stand apart in the source; their conditions may differ.

What was measured:
5-HT3 receptors = target: T1, 5-HT3 receptors (Homo sapiens, UniProt P46098); experiment: NIMH PDSP primary binding assay; details: 10 μM
T1 sequence (P46098 24-478): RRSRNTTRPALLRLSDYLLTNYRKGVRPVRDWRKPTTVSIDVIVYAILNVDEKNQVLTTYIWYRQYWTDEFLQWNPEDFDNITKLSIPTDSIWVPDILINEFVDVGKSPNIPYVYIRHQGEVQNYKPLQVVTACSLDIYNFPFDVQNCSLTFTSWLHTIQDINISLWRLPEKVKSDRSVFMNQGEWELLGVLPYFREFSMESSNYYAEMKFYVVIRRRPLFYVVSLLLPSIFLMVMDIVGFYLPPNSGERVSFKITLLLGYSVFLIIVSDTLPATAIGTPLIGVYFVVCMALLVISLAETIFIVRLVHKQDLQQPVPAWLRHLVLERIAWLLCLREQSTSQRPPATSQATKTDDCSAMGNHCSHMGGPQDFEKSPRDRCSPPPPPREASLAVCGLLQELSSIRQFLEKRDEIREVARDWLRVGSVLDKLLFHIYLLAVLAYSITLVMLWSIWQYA
Procedure: (§1) All binding assays for targets other than nAChRs were performed by the National Institute of Mental Health's Psychoactive Drug Screening Program (PDSP) supported by NIMH grant HHSN-271-2008-00025-C(PI: Bryan Roth). For experimental details (Ki determinations, receptor binding profiles, functional data, MDR1 data, etc. as appropriate) refer to the PDSP web site http://pdsp.med.unc.edu/.
The compound either is not a “hit” in primary binding assays, or showing at least 3,000-fold lower binding affinities than that for α4β2 nAChRs in secondary binding assays (FIG. 19,).

[1] = test system: 41 other targets, including many CNS receptors and transporters; experiment: NIMH PDSP binding assays for targets other than nAChRs
Procedure: as §1
To determine affinities of the lead compound, VMY-2-95, for targets other than neuronal nAChRs, we tested VMY-2-95 in binding assays using 41 other targets, including many CNS receptors and transporters. […] The Ki values of VMY-2-95 at these 9 targets were determined by performing secondary binding assays using a series of concentrations of VMY-2-95. […] Furthermore, the binding affinity of VMY-2-95 for α4β2 nAChRs is at least 3,000 times higher than that for any of those 9 targets.

[2] = test system: nicotine self-administration; experiment: Nicotine self-administration in rats; type: in vivo, rat
Procedure: (§2) The studies were conducted in accordance with the regulations outlined by the Duke University Animal Care and Use Committee. The rats housed in approved standard laboratory conditions in a Duke University vivarium facility near the testing room to minimize stress induced by transporting the rats. The rats were kept on a 12:12 reverse day/night cycle, so that they were in their active phase during behavioral testing. The rats in the drug iv self-administration studies were singly housed to prevent them from damaging each other's catheters. The rats in the locomotor activity studies were housed in groups of 2-3. All rats were allowed access to water at all times; the rats in the nicotine-self-administration study were fed daily approximately 30 minutes after completing the sessions while those in the locomotor activity study had continuous access to food.
(§3) VMY-2-95 was injected s.c. 10 minutes before testing in a volume of 1 mL/kg of saline. The doses (0, 0.3, 1 and 3 mg/kg) were given in a counterbalanced order with at least two days between successive injections.
Each infusion was immediately followed by a one-minute period in which the cue lights went out, the house light came on and responses were recorded but not reinforced.
After food training, the animals were surgically implanted with jugular catheters. […] Alpha of p<0.05 (two-tailed) was used as the threshold for significance.

locomotor activity = experiment: Locomotor activity in figure-8 maze; type: in vivo, rat; details: 1-hour session
Procedure: as §2, §3
Another set of rats (N=12) was tested for acute VMY-2-95 effects on locomotor activity in a figure-8 maze over the course of a 1-hour session (see FIG. 10). […] Numbers of photobeam breaks were recorded for five minutes blocks over the one-hour session. […]

[3] = 10 μM, 41 targets, primary binding assays

## C(#Cc1cncc(OC[C@@H]2CCN2)c1)c1ccccc1 [VMY-2-95, (S)-3-(azetidin-2-ylmethoxy)-5-(phenylethynyl)pyridine]
5-HT3 receptors
  primary binding result at 5-HT3 receptors: not a “hit”
[1]; [3]
  number of targets "hit" (more than 50% inhibition of binding): 9
  number of targets "miss" (less than 50% inhibition of binding): 32
[1]; Ki from secondary binding assays
  binding affinity for α4β2 nAChRs relative to the 9 hit targets: at least 3,000 times
[2]; 3 mg/kg s.c., 10 min before session, p<0.025
  nicotine self-administration (number of nicotine infusions) vs saline vehicle: significantly reduces; also recorded: significant (p<0.025) decrease
[2]; 0.3, 1, 3 mg/kg s.c., F(3,42)=3.36, p<0.05
  intravenous nicotine self-administration, overall dose effect: decreased intravenous nicotine self-administration in a dose-dependent manner
[2]; lower doses 0.3 and 1 mg/kg s.c.
  nicotine self-administration vs saline vehicle: did not produce significant decreases; also recorded: did not produce significant effects
Locomotor activity; s.c.
  dose at peak of increased locomotor activity: 1 mg/kg
Locomotor activity; three doses tested (0.3, 1, 3 mg/kg s.c.)
  locomotor activity: significantly increased
